No end group written: not given here.
How the values were obtained:
[1] = Drug levels in the retina after intravitreal injection, LC/MS/MS; assay type: in vivo, Dutch-Belted rabbits; conditions: 225, 271, and 315 days after a single injection
Description: The rabbits were then sacrificed at various time points, and the various ocular tissues were separated. The drug levels in the retina were measured by Liquid chromatography-mass spectrometry (LC/MS/MS). The drug levels were plotted as ng/g. The Kd for binding of AXT107 to its integrin targets is 1-2 nM.

[2] = Gel formation and persistence in the vitreous after intravitreal injection
Description: In FIG. 3, AXT107 was injected into the vitreous of Dutch-Belted rabbits. […] The retina with the optic nerve is visible in the back of the eye.
In FIG. 7, AXT107 was injected into the vitreous of Dutch-Belted rabbits in a PK toxicology study.

LRRFSTAPFAFIDINDVINF [AXT107]
AXT107 level in the retina [1]: significant levels
gels in the vitreous at necropsy, PK toxicology study ([2]; Dutch-Belted rabbits, 6 Months after administration, all doses): visible in the vitreous at all doses
effect of gel on the visual axis ([2]; rabbit eye, after intravitreal injection): does not block the visual axis
time the gel stays in place without breaking apart or migrating ([2]; rabbit eye, doses of 100 μg, 250 μg, 500 μg, and 1000 μg): 15 months
release of peptide from gel ([2]; rabbit vitreous): released the peptide in a sustained manner
